What was measured:
H9 hESCs = test: NKX6.1 induction in neurally differentiating H9 hESCs after 24 h treatment (flow cytometry, RT-PCR, day 3); type: cell-based, human
Procedure: NKX6.1 is the earliest expressed marker in the motor neuron development cascade in vivo, so we examined its expression in response to Wnt/β-catenin, RA, and SHH signaling during hPSC motor neuron differentiation. H9 hESCs were differentiated in E6 medium for 2 days to initiate neural fate acquisition34 and then treated with combinations of RA, purmorphamine (PM, a small molecule agonist of SHH signaling), and CHIR for 24 h (FIG. 4A). […] Using the H9 ishcat2 line, we observed that CHIR-mediated induction of NKX6.1 was β-catenin-dependent, as the optimal 3 days of shRNA-mediated CTNNB1 knockdown upstream of CHIR treatment was required to maximally reduce NKX6.1 induction to 44±1% (FIG. 4E). The correlation between NKX6.1 knockdown and days of doxycycline treatment was presumably due to the time delay for shRNA synthesis and subsequent gene knockdown in Tet-on systems. […] Exogenously added WNT3A (200 ng/mL) could also induce NKX6.1 expression (60±14%) (FIG. 4G), providing further evidence for the involvement of Wnt/β-catenin signaling in this process. In contrast, simultaneous treatment with CHIR and BMP4 (200 ng/mL), a dorsal patterning factor, reduced the expression of NKX6.1 from 91±1% to 68±2% (FIG. 4H).
hESCs were dissociated with accutase (Thermo Fisher Scientific) and reseeded at 1×10^5 cells/cm2 in E8 medium containing 10 μM ROCK inhibitor (Y27632; R&D Systems) on 6-well polystyrene tissue culture plates coated with 100 μg/mL poly-L-ornithine (PLO; Sigma) and 8 μg/well VTN-NC. The timelines and relevant growth factors/small molecules for all differentiation procedures are described in detail in the Results section and its accompanying figures. Cells were differentiated for various amounts of time in E6 medium containing the same insulin concentration as E8 medium as described above with varying combinations of soluble factors (product information and concentration ranges are found in Table 2). For neuromesodermal induction and HOX propagation, cells were sequentially cultured with FGF8b, CHIR99021 (CHIR), GDF11, and dorsomorphin (DM) as previously described. Briefly, to initiate the neuromesodermal state, cells were changed to E6 medium followed by addition of FGF8b (200 ng/ml) 24 h later. To generate cervical neuromesodermal progenitors, cells were washed with PBS, treated with accutase, and re-seeded in E6 medium containing 200 ng/ml FGF8b, 3 μM CHIR, and 10 μM Y27632 on VTN-NC-coated plates at a density of 1.5×10^5 cells/cm^2 for 48 h. To generate thoracic neuromesodermal progenitors, cells were passaged again after 72 h of CHIR treatment and re-seeded at different densities as described in the text.
Thoracic identity was reached after an additional 24 h. Then, to reach the lumbosacral level, cells were given 30 ng/ml GDF11 and 1 μM DM for an additional 48 h. For neuroectoderm induction and generation of OLIG2^+ progenitors, FGF8b was removed at the designated time points and the concentration of CHIR was increased for 6 h as described in the text, followed by a transition to media containing RA, PM, and SHH for a period of 48 h. For differentiation of the OLIG2^+ progenitors to motor neurons, cells were subcultured by en bloc passage using a cell scraper, reseeded at a 1:200 ratio in Matrigel-coated 8-well chamber slides, and differentiated for 14 days in E6 medium containing 1 μM RA, 100 nM PM, and 100 ng/mL SHH, with media exchange every 3 days (10 μM Y27632 was included during the en bloc passaging step and removed after the first media exchange). For differentiation of lumbar cultures, 1 μM DM was included in all steps. For the myoblast co-culture experiments, OLIG2^+ cultures were en bloc passaged, frozen in E6 medium containing 10% DMSO, shipped to a different location, and thawed 1:10 in 6-well plates under the same conditions as described in FIG. 5. To facilitate neuronal maturation prior to myoblast co-culture, 5 μM DAPT (Tocris) was added from days 8-14 post-thaw. […]

GLI3 = test: Western blot of full-length versus truncated repressor GLI3; type: cell-based, human; conditions: cultures maintained in 3 and 6 μM CHIR during PM/SHH exposure, day 6
Procedure: To begin, we sequentially differentiated H9 hESCs in E6 media for 1 day, and FGF8b (200 ng/mL) for 1 day, and FGF8b and CHIR (3 μM) for 2 days to generate cervical neuromesoderm (FIGS. 5A-5B). Then, we screened the effects of CHIR, PM, and SHH treatment on NKX6.1^+/PAX6^+/OLIG2^+ motor neuron progenitor induction while transitioning to media containing 1 μM RA (FIGS. 5A-5D). Prior to the addition of RA, NKX6.1 was expressed in the cervical neuromesodermal state at day 4 (80±18% NKX6.1^+; data not shown), likely due to the CHIR-induced Wnt/β-catenin signaling (FIGS. 4A-4H). Transitioning the neuromesodermal progenitors to RA-containing media for 2 days induced HOXB4^+/HOXC6^+/HOXC9^−/HOXD10^−/PAX6^+ cervical neuroectoderm in all conditions (FIGS. 5B-5C), as expected. However, without co-activation of SHH signaling by PM or SHH, NKX6.1 expression was quickly lost by day 6 (97±1% PAX6^+, 17±3% NKX6.1^+) (FIG. 5C). […] To bolster this claim, we also analyzed the abundance of full-length GLI3 versus its truncated repressor form by western blot. […]
Cells were washed with cold PBS, harvested with accutase, and pelleted by centrifugation. […] Immunostained bands were detected using the SuperSignal West Pico Chemiluminescent Substrate kit (Thermo Fisher Scientific). […]

SMILES: Cc1c[nH]c(-c2cnc(NCCNc3ccc(C#N)cn3)nc2-c2ccc(Cl)cc2Cl)n1 [CHIR, CHIR99021]
- NKX6.1 expression (flow cytometry) (H9 hESCs; CHIR 4 μM without BMP4, day 3): 91±1%
- NKX6.1 expression (flow cytometry) (H9 hESCs; CHIR alone 6 μM, 24 h, analysed day 3): 98±1%
- NKX6.1 and OLIG2 gene expression (RT-PCR) (H9 hESCs; CHIR alone 6 μM, 24 h, day 3): sufficient to induce NKX6.1 but not OLIG2 gene expression
- GLI3 truncated repressor form level (western blot) (GLI3): increased levels of the GLI3 truncated repressor form

Source: patent US12084680B2, “Methods for efficient derivation of human motor neurons from diverse spinal regions” (Wisconsin Alumni Research Foundation, priority 2016, dated 2024)
